Measured values as given in patent US10596166B2, “Combination composition comprising huperzine” (priority 2015, dated 2020).
Where two headings read alike, the source gives them in different places.

Legend:
[1] = system: Acetylcholinesterase (AChE)
Description: Test compounds alone or in association in mixture were solved at different concentrations in medium and then pre-incubated with kit of measure AchE (Promega, France).
Test compounds alone or in association in the NSP01-001-E001 prepared according to example 4 were solved at different concentrations in medium and then pre-incubated with kit of measure AchE (Promega, France).
Kit achetylcholinesterase (Abcam ref ab138871) was used. […] A 10-minutes incubation time was applied. The absorbance was assessed at 410 nm.
The activity of the AchE was evaluated versus an AchE activity standard curve.
Data were expressed in percentage of control conditions (no compound=100%). All values were expressed as mean+/−SEM (s.e.mean) (n=6 wells per condition per culture). Graphs and statistical analyses on the different conditions (ANOVA followed by PLSD Fisher's test when allowed, were performed using GraphPad Prism software version 5.0).

[2] = system: primary cortical neurons injured by Aβ; experiment: Aβ-peptide toxicity on primary cortical neurons (neuron survival, neurite network); format: cell-based, rat; conditions: Aβ 20 μM, 24 h
Description: The present study used an in vitro model of Alzheimer's disease established by Callizot et al. [2013, already cited], using Aβ-peptide solution containing Aβ-oligomers and permitting to reproduce essential neuropathological features of Alzheimer's disease.
The Aβ1-42-preparation was obtained following the procedure described by Callizot et al. [2013, already cited]. Briefly, Aβ1-42 peptide was dissolved in the defined culture medium mentioned above, devoid of serum, at an initial concentration of 40 μmol/liter. This solution was gently agitated for 3 days at 37° C. in the dark and immediately used after being diluted in culture medium to the concentrations used.
On day 11 of culture, HA, CA, FA and mixtures thereof were solved and diluted in culture medium and then pre-incubated with cortical neurons 1 hour before the Aβ1-42-peptide application. Aβ1-42-preparation was then added to a final concentration of 20 μM diluted in control medium.
After 24 hours of Aβ-intoxication, the cultures were fixed and immunolabeled and the neuron survival and the neurite network length were assessed as described in the above example.

[3] = system: primary cortical neurons injured by glutamate; experiment: glutamate toxicity on primary cortical neurons (neuron survival, neurite network); format: cell-based, rat; conditions: for effect on glutamate toxicity: at the lowest concentrations; for non-active concentration: see example 2
Description: Rat cortical neurons were cultured as described by Singer et al., 1999 [J. Neuroscience 19(7), 2455-2463] and Callizot et al. 2013 [J. Neurosc. Res. 91(5), 706-716].
Briefly, pregnant females (Wistar; JanvierLabs, St Berthevin, France) at 15 days of gestation were killed by cervical dislocation. Foetuses were collected and immediately placed in ice-cold L15 Leibovitz medium (Pan Biotech, Aidenbach, Germany, Batch: 4120413) with a 2% penicillin (10,000 U/ml) and streptomycin (10 mg/ml) solution (PS; Pan Biotech, Aidenbach, Germany) and 1% bovine serum albumin (BSA; Pan Biotech, Aidenbach, Germany). Cortex was treated for 20 min at 37° C. with a trypsin-EDTA (Pan Biotech, Aidenbach, Germany) solution at a final concentration of 0.05% trypsin and 0.02% EDTA. The dissociation was stopped by addition of Dulbecco's modified Eagle's medium (DMEM) with 4.5 g/liter of glucose (Pan Biotech, Aidenbach, Germany), containing DNAse I grade II (final concentration 0.5 mg/ml; Pan Biotech, Germany) and 10% fetal calf serum (FCS; Invitrogen, Cergy Pointoise, France). Cells were mechanically dissociated by three forced passages through the tip of a 10-ml pipette. Cells were then centrifuged at 515 g for 10 min at 4° C. The supernatant was discarded, and the pellet was resuspended in a defined culture medium consisting of Neurobasal medium (Invitrogen, Cergy Pointoise, France) with a 2% solution of B27 supplement (Invitrogen, Cergy Pointoise, France), 2 mmol/liter of L-glutamine (Pan Biotech, Aidenbach, Germany), 2% of PS solution, and 10 ng/ml of brain-derived neurotrophic factor (BDNF; Pan Biotech, Aidenbach, Germany). Viable cells were counted in a Neubauer cytometer, using the trypan blue exclusion test. The cells were seeded at a density of 30,000 per well in 96-well plates precoated with poly-L-lysine (Corning Biocoat, Tewksbury, USA) and were cultured at 37° C. in an air (95%)-CO2 (5%) incubator. The medium was changed every 2 days.
On day 13, the cultures were exposed for 20 minutes to glutamate 40 μM in the absence or presence of Huperzia serrata extracts. Then the cells were washed out and new fresh medium containing or not Huperzia serrata extracts was added for another 48 hours.
The cells were then fixed by a cold solution ethanol/acetic acid (95:5 v/v) for 5 minutes at −20° C. After permeabilization with 0.1% of saponin (Sigma), cells were incubated for 2 hours with mouse monoclonal antibody against microtubule-associated-protein 2 (MAP 2; Sigma) at dilution of 1/400 in PBS containing 1% foetal calf serum (Invitrogen) and 0.1% of saponin.
Neuron survival assessment: For each condition 6 wells were assessed, 20 pictures per well were taken using InCell Analyzer™ 1000 (GE Healthcare) with 20× magnification to assess cell bodies (MAP 2 staining). Analysis of picture was done using Developer software (GE Healthcare), the number of neurons per picture was recorded. A mean of neuron number of the 20 pictures was automatically calculated per well, then one data was provided per well (total of 6 raw data were provided per condition).
Neurite network length assessment: For each condition 6 wells were assessed, 20 pictures per well were taken using InCell Analyzer™ 1000 with 20× magnification (20 pictures at X20 representing ˜80% of the total well surface), to assess MAP-2 staining. Analysis of picture was done using Developer software, the total neurite length per picture was recorded. A mean neurite length of the 20 pictures was automatically calculated per well, then one data was provided per well (total of 6 raw data were provided per condition).
The protocol used in these assays is the same as described in example 1. After 13 days of neuron culture, the candidate compounds were solved in DMSO and diluted in culture medium. […]

[4] = system: Alzheimer's disease patients; conditions: particularly at a daily dose of 300-500 μg; cited from earlier work

Structure (SMILES) | inhibition of AChE ([1]; 50 pM) [%] | neuron survival ([2]; 500 pM and below) | neurite network ([2]; even at lower concentrations) | neuron survival ([2]; from 5 nM up to 5 μM) | effect on glutamate toxicity [3] | neurite network ([3]; glutamate 40 μM, 20 min, 1 μM and 5 μM) | non-active concentration ([3]; glutamate 40 μM, 20 min) [pM] | neuron survival ([2]; HA, all concentrations) | lowest active dose ([3]; glutamate 40 μM, 20 min) [nM] | neurite network ([3]; glutamate 40 μM, 20 min, 10 nM) [%] | neuron survival ([3]; glutamate 40 μM, 20 min, 10 nM) [%] | tolerability and benefit [4] | inhibition of AChE ([1]; 100 pM) [%] | neurite network ([2]; 10 and 100 μM) | neuron survival ([2]; whatever the concentration tested) | neurite network ([3]; glutamate 40 μM, 20 min, 10 μM and 100 μM)
O=C(O)/C=C/c1ccc(O)c(O)c1 [CA, caffeic acid] | ~8 | no effect | Protective effect | significantly protect | little or no effect | moderate effect | 500 |  |  |  |  |  |  |  |  | 
C/C=C1\[C@H]2C=C(C)C[C@]1(N)c1ccc(=O)[nH]c1C2 [HA, huperzine A, reference compound] |  |  |  |  | little or no effect |  | 10 | not able to significantly protect | 1 | > 90 | 94 | well-tolerated and beneficial |  |  |  | 
COc1cc(/C=C/C(=O)O)ccc1O [FA, ferulic acid] |  |  |  |  | little or no effect |  | 10000 |  |  |  |  |  | ~8 | significant effect | not able to protect | significant protective effect
